Data set [1] concerns the target T1, immobilized human nectin-4 (Homo sapiens, UniProt Q96NY8).
T1 construct: close to the value determined for the complete extracellular domain of nectin-4 (0.94 nM); purchased R&D Systems 2659-N4
T1 sequence (Q96NY8 32-349 limits assumed): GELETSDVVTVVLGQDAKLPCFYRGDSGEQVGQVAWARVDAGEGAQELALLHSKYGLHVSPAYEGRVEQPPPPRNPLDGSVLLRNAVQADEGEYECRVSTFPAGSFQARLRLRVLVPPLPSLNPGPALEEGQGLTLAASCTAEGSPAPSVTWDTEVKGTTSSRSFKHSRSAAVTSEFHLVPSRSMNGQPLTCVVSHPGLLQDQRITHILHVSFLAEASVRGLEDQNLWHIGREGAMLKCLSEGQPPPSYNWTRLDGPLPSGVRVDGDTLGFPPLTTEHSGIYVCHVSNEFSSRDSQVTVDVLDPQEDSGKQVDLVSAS
Nature of the data set: SPR analysis of binding kinetics. Particulars: ±SEM.
Description: For this purpose, recombinant human nectin-4 was covalently immobilized on a CM5 sensor chip by EDC/NHS coupling. For analyses, the buffer composition (HBS-P+, pH 7.4) was similar to that of the FA assay; however, DMSO was completely omitted (1% DMSO for the FA assay).
The SPR analyses were carried out on a Biacore T200 (GE Healthcare, Chicago, IL, USA) at 25 °C using CM5 sensor chips (Cytiva) and HBS-P+ as running buffer (Cytiva) at a flow of 30 μL/min unless otherwise specified and a data collection rate of 10 Hz. All flow cells (FC) were normalized, and functionalization was performed using an amine coupling Kit (Cytiva). […] Binding analyses were performed by a single-cycle kinetic on both FC. Two start-up cycles were performed at the beginning of each experimental set, comprising the injection of bicyclic peptide (50 nM) and analysis on both FC, followed by regeneration. Binding analysis for the bicyclic peptides was performed by consecutive injection of five increasing concentrations (120 s contact time for each concentration), followed by 600 s dissociation time and analysis on both FC. The regeneration was performed by sequential injection of 10 mM NaOAc (pH 5.5) for 60 s, washing the needle using HBS-P+, injection of 10 mM NaOAc (pH 5.5) for 60 s, 600 s waiting, four injections of HBS-P+ (60 s), and a final 600 s waiting for stabilization. Blank runs using only buffer (HBS-P+) instead of the sample were carried out to obtain double-referenced chromatograms. Binding analyses were performed unless otherwise stated in a concentration range between 0.16–100 nM and 1.6–1000 nM (5-fold dilution series) and analyzed in triplicate. The data were analyzed using the Biacore Evaluation software 3.2.1. […] Data were fitted to a 1:1 binding model.

A short description of data set [2]: n-Octanol/PBS distribution coefficient (logD 7.4). It counts as physicochemical. Particulars: pH 7.4, logD 7.4. As to the method:
The determination of logD 7.4 was performed in triplicate. A sample of the ^64Cu/^68Ga-labeled compound containing ≈1 MBq in a volume of 1 μL was added to a 1.5 mL Eppendorf tube containing 400 μL of PBS (pH 7.4) and 400 μL of n-Octanol (the phases were presaturated with each other). The tube was vortexed vigorously for 1 min and then centrifuged at 16,100g for 4 min to separate the phases. For sampling from the aqueous phase, the pipette tip was discharged while passing through the octanol layer. Then, the sample was taken within the aqueous phase. Any residual liquid was carefully removed by moving the tip along the inner wall of an Eppendorf tube. The radioactivity in a defined volume of each layer was measured (ISOMED 2100). The distribution coefficient was expressed as the logarithm of the ratio of counts per minute (cpm) measured in the n-Octanol phase to the cpm measured in the PBS phase.

For a further data set, the system named is HT-1376 cells. Nature of the data set: Saturation binding assay on intact cells. Type of data set: cell-based, human. Particulars: ^68Ga-labeled ligand, intact HT-1376 cells, ±SD. The method, then: For the saturation binding assay, total and nonspecific binding were determined as described above using 10 different radioligand concentrations ([…]) prepared by serial 1:1 dilution. Plots of “total binding” = f(radioligand) were analyzed by nonlinear regressions using the model of “one site-total, accounting for ligand depletion” as implemented in GraphPad Prism, and Plots of “nonspecific binding” = f(radioligand) were analyzed by linear regressions.

In data set [3] the target is T2, recombinant human nectin-4 (Homo sapiens, UniProt Q96NY8).
T2 construct: close to the value determined for the complete extracellular domain of nectin-4 (0.94 nM); purchased R&D Systems 2659-N4
T2 sequence (Q96NY8 32-349 limits assumed): T1 sequence (Q96NY8 32-349 limits assumed)
Nature of the data set: FA-based competitive binding assay with probe 1a. The note with it: for Hill coefficient n: competitive binding curve, variable slope. As to the method: For the competitive binding assay, a constant concentration of probe 1a (1 nM) and of nectin-4 (20 nM) was used, and the concentration of the competitors was varied over at least 3 orders of magnitude. […] Analysis of the curves by nonlinear regression according to dose–response inhibition with variable slope, as implemented in GraphPad Prism (see Experimental section), provided the IC50 value for displacing the probe from nectin-4.
All measurements were conducted at 37 °C over 1200 s (interval of 37 s) using a Cytation 5 multimode microplate reader (BioTek Instruments, Software Gen 5) and black 96-well microplates (BRANDplates with F-bottom wells). Experiments were conducted at an excitation wavelength of 540 nm and an emission wavelength of 620 nm. The FA (r) was calculated by Gen 5 software from the measured parallel and perpendicular fluorescence intensities (I ∥ and I ⊥, respectively) according to eq using a G factor of 0.87 (preset value). r=I∥−G×I⊥/I∥+2G×I⊥ 1
All further data analyses were conducted with GraphPad Prism (version 10.4.1, GraphPad Software, San Diego, CA, USA). The assay mixture (100 μL) contained an aqueous solution (99 μL) and DMSO (1%, v/v, 1 μL).
For the competitive binding assay, fixed concentrations of probe 1a (1 nM) and recombinant human nectin-4 (20 nM) and 10 concentrations of nonlabeled peptide (e.g., […] prepared as serial 1:1 dilution) were used (two separate experiments, each performed in duplicate). The corresponding stock solutions of 1a (2.5 nM) and nectin-4 (50 nM) were prepared in HEPES buffer, while the stock solutions of the nonlabeled peptides were prepared in 5% DMSO/HEPES buffer. nectin-4 (40 μL) and 1a (40 μL) were added to the wells, and the competition was started by the addition of the nonlabeled peptides (20 μL). The FA values were averaged over the time period of 1200 s, and plots of FA = f([peptide]) were analyzed by nonlinear regression according to the model “[inhibitor] vs. response – Variable slope (four parameters)” as implemented in GraphPad Prism. […] Therefore, the lower FA plateau was constrained to the FA value of probe 1a in the absence of nectin-4 and the competitor, which was recorded in each experiment.

Data set [4] in a line: Oxidation stability in H2O2 (radio-HPLC). As to the method:
To avoid a too rapid degradation of radiolabeled peptides, a low H2O2 concentration of 0.0012% was chosen. […] In this context, there are three further thioether functionalities in each peptide due to the cyclization of the Cys residues with TATA. In Figure , the curves for the time-dependent degradation of the intact radioligands are depicted, from which the respective half-lives were calculated.
The stability toward oxidizing conditions was assessed with H2O2. For this purpose, the radioligands (2 nmol, 48 μL of labeling mixture) were treated with H2O2 (2 μL of 0.03%, final concentration of 0.0012%) at ambient temperature. At distinct time points (3, 5, and 7 h), an aliquot of 2 μL was withdrawn and diluted with 48 μL of a mixture named “Supersol,” which consists of 20% ethanol, 0.5% Triton X-100, 5 mM EDTA, 0.5 mM o-phenanthroline, and 0.1% saponin. […] The resulting solutions were analyzed by radio-HPLC (same system as that used for analyzing the ^64Cu-labelings).

Data set [5] deals with HT-1376-derived tumor xenograft model. Nature of the data set: Small animal PET/CT imaging. On the set-up: species or system mice. The note with it: mouse, in vivo. As to the method:
(§1) All animal experiments were performed following the protocols evaluated and approved by the Landesdirektion Sachsen, Referat 25 – Veterinärwesen, Lebensmittelüberwachung and Pharmazie (09105 Chemnitz, Germany, ethics approval number: 25-5131/562/52). HT-1376- and 5637-derived tumor xenograft models were established in NMRI nude mice (Rj: NMRI-Foxn1nu/nu, Charles River Laboratories, Sulzfeld, Germany) by subcutaneous injection of 5 × 10^6 cells in 100 μL of PBS containing 50% (v/v) Matrigel (Corning Life Sciences, Amsterdam, The Netherlands).
(§2) When the tumor volume reached 200 mm^3, PET experiments with radiotracers were performed. Radiolabeling of the ligands was performed as described previously with an apparent molar activity of 25 MBq/nmol. The radioligand stock solution (pH 6.5 – 7.5) was diluted in 0.9% NaCl, and 200 μL containing ∼9 MBq ([…]) was injected per mouse intravenously into a lateral tail vein. For blocking of target-specific radioligand binding, 75 nmol of blocking substance (1d) was administered simultaneously with the radioligand. Coincidences were recorded continuously in a 2 h PET-scan starting with the injection. Additionally, a CT scan was performed for anatomical referencing and attenuation correction. PET/CT imaging, reconstruction, and tissue delineation were carried out as described previously.

Data set [6] can be described thus: Small animal PET/CT imaging. Particulars: mouse, in vivo. Further details: species or system mice. The method, then:
as §1, §2

Numbered stars: 1 amine (or outer) side, 2 acyl side, 3 side chain; on linkers, the order of the positions; unused ones are H or OH. Bridge positions count the residues as written; N and C are the ends. Square brackets hold non-standard residues; d marks the D form. Peptide text beside a SMILES is read from it. * marks the point of attachment. DOTA = O=C(O)CN1CCN(CC(=O)O)CCN(CC(=O)*)CCN(CC(=O)O)CC1; TATA = O=C(CC[*:1])N1CN(C(=O)CC[*:2])CN(C(=O)CC[*:3])C1; X1 = O=C(O)CN1CCN(CC(=O)O)CCN([C@H](CCC(=O)*)C(=O)O)CC1; 1Nal = N[C@@H](Cc1cccc2ccccc12)C(=O)O; 2Nal = N[C@@H](Cc1ccc2ccccc2c1)C(=O)O; Hyp = O=C(O)[C@@H]1C[C@@H](O)CN1; hArg = N=C(N)NCCCC[C@H](N)C(=O)O; Met(O) = CS(=O)CC[C@H](N)C(=O)O

As a reminder, the logD is the decadic logarithm of the distribution of all forms, ionised or not, between an organic phase and buffer at a given pH. A lower logD goes with lower lipophilicity. Usually half-life stands for how long it takes for the measured level to halve. Read a low half-life as rapid decline.

On to `CSCC[C@@H]1NC(=O)[C@@H]2CSCCC(=O)N3CN(CN(C3)C(=O)CCSC[C@H](NC(=O)CN3CCN(CC(=O)O)CCN(CC(=O)O)CCN(CC(=O)O)CC3)C(=O)N3CCC[C@H]3C(=O)N[C@@H](Cc3ccc4ccccc4c3)C(=O)N[C@H](CC(=O)O)C(=O)N2)C(=O)CCSC[C@@H](C(N)=O)NC(=O)[C@H](Cc2c[nH]c3ccccc23)NC(=O)[C@@H]2C[C@@H](O)CN2C(=O)[C@@H]2CCCN2C(=O)[C@H]([C@@H](C)O)NC(=O)[C@H](CO)NC(=O)[C@H](Cc2c[nH]c3ccccc23)NC(=O)[C@H](CC(=O)O)NC(=O)[C@H](CCCNC(=N)N)NC1=O` [8c] ({DOTA}-CP[2Nal][dD]CMRDWSTP[Hyp]WC-NH2; linker 1-5-15 via TATA), for which the kon in data set [1] (HBS-P+ pH 7.4, 25 °C, read-out: k on (SPR, *10^6 M^–1 s^–1)) came out at 20000 M⁻¹ s⁻¹. In addition, the koff in data set [1] (pH 7.4, HBS-P+ pH 7.4, 25 °C, read-out: k off (SPR, *10^–3 s^–1)) was 0.00239 s⁻¹. In data set [2], this compound came in with a logD of -2.79. For the same compound, the Kd in the data set with HT-1376 cells (60 min, PBS wash, apparent) is 103 nM. For the same compound, the “B max (fmol/mg)” value in the data set on HT-1376 cells was 799 (±136) fmol/mg. In addition, in data set [3] (FA K d ratio), the “factor less potent than DOTA conjugate 1f” value turned out to be 21 fold and the “fold lower binding affinity compared to 1e” value was determined as 213 fold. The Hill coefficient n in data set [3] was determined as 1.23.

Turning to `CCSC[C@@H]1NC(=O)[C@@H]2CSCCC(=O)N3CN(CN(C3)C(=O)CCSC[C@H](NC(=O)CC[C@H](C(=O)O)N3CCN(CC(=O)O)CCN(CC(=O)O)CC3)C(=O)N3CCC[C@H]3C(=O)N[C@@H](Cc3cccc4ccccc34)C(=O)N[C@H](CC(=O)O)C(=O)N2)C(=O)CCSC[C@@H](C(N)=O)NC(=O)[C@H](Cc2c[nH]c3ccccc23)NC(=O)[C@@H]2C[C@@H](O)CN2C(=O)[C@@H]2CCCN2C(=O)[C@H]([C@@H](C)O)NC(=O)[C@H](CO)NC(=O)[C@H](Cc2c[nH]c3ccccc23)NC(=O)[C@H](CC(=O)O)NC(=O)[C@H](CCCCNC(=N)N)NC1=O` [[^64Cu]Cu-7, metal not drawn] (X1-CP[1Nal][dD]CC(Et)[hArg]DWSTP[Hyp]WC-NH2; linker 1-5-15 via TATA), the half-life in data set [4] (half-life of intact radiolabeled peptide (T1/2), 0.0012% H2O2, 25 °C, one-phase decay) was 8.81 h.

Consider `CSCC[C@@H]1NC(=O)[C@@H]2CSCCC(=O)N3CN(CN(C3)C(=O)CCSC[C@H](NC(=O)CC[C@H](C(=O)O)N3CCN(CC(=O)O)CCN(CC(=O)O)CC3)C(=O)N3CCC[C@H]3C(=O)N[C@@H](Cc3ccc4ccccc4c3)C(=O)N[C@H](CC(=O)O)C(=O)N2)C(=O)CCSC[C@@H](C(N)=O)NC(=O)[C@H](Cc2c[nH]c3ccccc23)NC(=O)[C@@H]2C[C@@H](O)CN2C(=O)[C@@H]2CCCN2C(=O)[C@H]([C@@H](C)O)NC(=O)[C@H](CO)NC(=O)[C@H](Cc2c[nH]c3ccccc23)NC(=O)[C@H](CC(=O)O)NC(=O)[C@H](CCCNC(=N)N)NC1=O` [[^64Cu]Cu-8a, metal not drawn] (X1-CP[2Nal][dD]CMRDWSTP[Hyp]WC-NH2; linker 1-5-15 via TATA), for which the half-life in data set [4] was 4.04 h. In addition, in data set [5], the “Percent fast [%]” value was found to be 84.87 ±1.35%, the “body retention at 2 h p.i.” value is 40–42% and the “time of highest tumor uptake” value is recorded as “≈ 6 min”. This compound also showed a half-life in data set [6] (Blood half life fast [min]) of 0.0212 ± 0.00217 h. Besides, the half-life in data set [6] (Blood half life slow [min]) is 0.598 ± 0.0347 h.

With `CSCC[C@@H]1NC(=O)[C@@H]2CSCCC(=O)N3CN(CN(C3)C(=O)CCSC[C@H](NC(=O)CC[C@H](C(=O)O)N3CCN(CC(=O)O)CCN(CC(=O)O)CC3)C(=O)N3CCC[C@H]3C(=O)N[C@@H](Cc3cccc4ccccc34)C(=O)N[C@H](CC(=O)O)C(=O)N2)C(=O)CCSC[C@@H](C(N)=O)NC(=O)[C@H](Cc2c[nH]c3ccccc23)NC(=O)[C@@H]2C[C@@H](O)CN2C(=O)[C@@H]2CCCN2C(=O)[C@H]([C@@H](C)O)NC(=O)[C@H](CO)NC(=O)[C@H](Cc2c[nH]c3ccccc23)NC(=O)[C@H](CC(=O)O)NC(=O)[C@H](CCCNC(=N)N)NC1=O` [[^64Cu]Cu-10, metal not drawn] (X1-CP[1Nal][dD]CMRDWSTP[Hyp]WC-NH2; linker 1-5-15 via TATA), the half-life in data set [4] was 3.46 h.

`C[C@@H](O)[C@@H]1NC(=O)[C@H](CO)NC(=O)[C@H](Cc2c[nH]c3ccccc23)NC(=O)[C@H](CC(=O)O)NC(=O)[C@H](CCCCNC(=N)N)NC(=O)[C@H](CC[S+](C)[O-])NC(=O)[C@@H]2CSCCC(=O)N3CN(CN(C3)C(=O)CCSC[C@H](NC(=O)CC[C@H](C(=O)O)N3CCN(CC(=O)O)CCN(CC(=O)O)CC3)C(=O)N3CCC[C@H]3C(=O)N[C@@H](Cc3cccc4ccccc34)C(=O)N[C@H](CC(=O)O)C(=O)N2)C(=O)CCSC[C@@H](C(N)=O)NC(=O)[C@H](Cc2c[nH]c3ccccc23)NC(=O)[C@@H]2C[C@@H](O)CN2C(=O)[C@@H]2CCCN2C1=O` (stereo partly shown) [compound 2] (X1-CP[1Nal][dD]C[Met(O)][hArg]DWSTP[Hyp]WC-NH2; linker 1-5-15 via TATA) showed a logD in data set [2] of -2.51. The “fold lower binding affinity compared to 1e” value in data set [3] (FA K d ratio) was 34 fold. The Hill coefficient n in data set [3] came out at 1.07.
